# Test results reported in patent US20240132484A1, “BROAD SPECTRUM ANTIVIRAL COMPOUNDS TARGETING THE SKI COMPLEX” (priority 2020, published 2024).
# Several values for one entry are separate records, joined by “and”; a condition that tells them apart may be missing. Identical values can stand only once. Like-named read-outs stand apart in the source and are kept apart here.
# Assays:
# SARS2 = format: cell-based, SARS-CoV-2; conditions: for Percentage Infection Relative to Appropriate DMSO Control with Avg Background Subtraction: Greiner Celigo plates; for Percentage Inhibition Average 1 μM / Screening data (Relative infection to DMSO controls) Average 1 μM: SARS2, 1 μM; for Screening data (Relative infection to DMSO controls) Average 1 μM / Screening data (Relative infection to DMSO controls) Average 5 μM / Screening data (Relative infection to DMSO controls) Average 10 μM / Screening data (Relative infection to DMSO controls) Average 25 μM / Screening data (Relative infection to DMSO controls) Average 50 μM / Average (relative infection to DMSO over the 5 tested concentrations): 100=DMSO control; for Percentage Inhibition Average 5 μM / Screening data (Relative infection to DMSO controls) Average 5 μM: SARS2, 5 μM; for Percentage Inhibition Average 10 μM / Screening data (Relative infection to DMSO controls) Average 10 μM: SARS2, 10 μM; for Percentage Inhibition Average 25 μM / Screening data (Relative infection to DMSO controls) Average 25 μM: SARS2, 25 μM; for Percentage Inhibition Average 50 μM / Screening data (Relative infection to DMSO controls) Average 50 μM: SARS2, 50 μM; for Average (relative infection to DMSO over the 5 tested concentrations): SARS2, average over 1 to 50 uM; for Infection Data, Average, Mean: average of Exp 1-3 (SMW475, SMW477, SMW478)
# cells (nuclei count) = conditions: for Relative cell count to DMSO controls, Average 1 μM / Relative cell count to DMSO controls, Average 5 μM / Relative cell count to DMSO controls, Average 10 μM / Relative cell count to DMSO controls, Average 25 μM / Relative cell count to DMSO controls, Average 50 μM: toxicity data, 100=DMSO control; for Toxicity Data, Average, Mean: average of Exp 1-3 (SMW475, SMW477, SMW478); for Relative cell count to DMSO controls, Average (for correlation analysis): average value over the 5 tested concentrations (1 to 50 uM)
structure (smiles),measurement,setting,value
CCN(CC)CCN(Cc1ccccc1)Cc1ccccn1 [SILCS33],Percentage Infection Relative to Appropriate DMSO Control with Avg Background Subtraction,"SARS2; Exp 1 (SMW475), 1 uM",53.62% and 101.44% and 86.72%
same,Percentage Infection Relative to Appropriate DMSO Control with Avg Background Subtraction,"SARS2; Exp 1 (SMW475), 5 uM",69.33% and 82.60% and 84.98%
same,Percentage Infection Relative to Appropriate DMSO Control with Avg Background Subtraction,"SARS2; Exp 1 (SMW475), 10 uM",79.81% and 90.19% and 84.97%
same,Percentage Infection Relative to Appropriate DMSO Control with Avg Background Subtraction,"SARS2; Exp 1 (SMW475), 50 uM",52.39% and 69.09% and 65.56%
same,Percentage Infection Relative to Appropriate DMSO Control with Avg Background Subtraction,"SARS2; Exp 2 (SMW477), 1 uM",120.88% and 113.91% and 111.55%
same,Percentage Infection Relative to Appropriate DMSO Control with Avg Background Subtraction,"SARS2; Exp 2 (SMW477), 5 uM",128.80% and 118.55% and 121.74%
same,Percentage Infection Relative to Appropriate DMSO Control with Avg Background Subtraction,"SARS2; Exp 2 (SMW477), 10 uM",114.36% and 136.38% and 130.63%
same,Percentage Infection Relative to Appropriate DMSO Control with Avg Background Subtraction,"SARS2; Exp 2 (SMW477), 25 uM",73.62% and 97.76% and 95.99%
same,Percentage Infection Relative to Appropriate DMSO Control with Avg Background Subtraction,"SARS2; Exp 2 (SMW477), 50 uM",31.41% and 36.50% and 41.52%
same,Percentage Infection Relative to Appropriate DMSO Control with Avg Background Subtraction,"SARS2; Exp 3 (SMW478), 5 uM",121.27% and 137.96% and 122.71%
same,Percentage Infection Relative to Appropriate DMSO Control with Avg Background Subtraction,"SARS2; Exp 3 (SMW478), 10 uM",159.81% and 126.46% and 162.16%
same,Percentage Infection Relative to Appropriate DMSO Control with Avg Background Subtraction,"SARS2; Exp 3 (SMW478), 25 uM",126.24% and 109.99% and 117.46%
same,Percentage Infection Relative to Appropriate DMSO Control with Avg Background Subtraction,"SARS2; Exp 3 (SMW478), 50 uM",71.82% and 89.49% and 84.99%
same,Percentage Inhibition Average 1 μM,SARS2,28.78%
same,Screening data (Relative infection to DMSO controls) Average 1 μM,SARS2,71.22
same,Percentage Inhibition Average 5 μM,SARS2,−9.77%
same,Screening data (Relative infection to DMSO controls) Average 5 μM,SARS2,109.77
same,Percentage Inhibition Average 10 μM,SARS2,−20.53%
same,Screening data (Relative infection to DMSO controls) Average 10 μM,SARS2,120.53
same,Percentage Inhibition Average 25 μM,SARS2,24.68%
same,Screening data (Relative infection to DMSO controls) Average 25 μM,SARS2,75.32
same,Percentage Inhibition Average 50 μM,SARS2,39.69%
same,Screening data (Relative infection to DMSO controls) Average 50 μM,SARS2,60.31
same,Average (relative infection to DMSO over the 5 tested concentrations),SARS2,87.43
same,"Infection Data, Average, Mean","SARS2; n 9, 1 uM",71.22%
same,"Infection Data, Average, Mean","SARS2; n 9, 5 uM",109.77%
same,"Infection Data, Average, Mean","SARS2; n 9, 10 uM",120.53%
same,"Infection Data, Average, Mean","SARS2; n 9, 25 uM",75.32%
same,"Infection Data, Average, Mean","SARS2; n 9, 50 uM",60.31%
same,"Relative cell count to DMSO controls, Average 1 μM",cells (nuclei count),118.72
same,"Relative cell count to DMSO controls, Average 5 μM",cells (nuclei count),94.18
same,"Relative cell count to DMSO controls, Average 10 μM",cells (nuclei count),80.17
same,"Relative cell count to DMSO controls, Average 25 μM",cells (nuclei count),85.8
same,"Relative cell count to DMSO controls, Average 50 μM",cells (nuclei count),59.2
same,"Toxicity Data, Average, Mean","cells (nuclei count); n 9, 1 uM",118.72%
same,"Toxicity Data, Average, Mean","cells (nuclei count); n 9, 5 uM",94.18%
same,"Toxicity Data, Average, Mean","cells (nuclei count); n 9, 10 uM",80.17%
same,"Toxicity Data, Average, Mean","cells (nuclei count); n 9, 25 uM",85.80%
same,"Toxicity Data, Average, Mean","cells (nuclei count); n 9, 50 uM",59.20%
same,"Relative cell count to DMSO controls, Average (for correlation analysis)",cells (nuclei count),87.61
CN1CCN(CC(O)COc2cccc(N3CCCCC3)c2CNCCc2ccccc2F)CC1 (stereo not drawn) [SILCS10],SARS2 antiviral activity,SARS2,strong activity
same,Percentage Inhibition Average 1 μM,SARS2,47.40%
same,Screening data (Relative infection to DMSO controls) Average 1 μM,SARS2,52.60
same,Percentage Inhibition Average 5 μM,SARS2,56.27%
same,Screening data (Relative infection to DMSO controls) Average 5 μM,SARS2,43.73
same,Percentage Inhibition Average 10 μM,SARS2,58.42%
same,Screening data (Relative infection to DMSO controls) Average 10 μM,SARS2,41.58
same,Percentage Inhibition Average 25 μM,SARS2,66.00%
same,Screening data (Relative infection to DMSO controls) Average 25 μM,SARS2,34.00
same,Percentage Inhibition Average 50 μM,SARS2,93.61%
same,Screening data (Relative infection to DMSO controls) Average 50 μM,SARS2,6.39
same,Average (relative infection to DMSO over the 5 tested concentrations),SARS2,35.66
same,"Relative cell count to DMSO controls, Average 1 μM",cells (nuclei count),131.94
same,"Relative cell count to DMSO controls, Average 5 μM",cells (nuclei count),141.21
same,"Relative cell count to DMSO controls, Average 10 μM",cells (nuclei count),131
same,"Relative cell count to DMSO controls, Average 25 μM",cells (nuclei count),50.46
same,"Relative cell count to DMSO controls, Average 50 μM",cells (nuclei count),84.08
same,"Toxicity Data, Average, Mean (relative to DMSO control)","cells (nuclei count); Average of Exp 1-3, 1 uM",131.94%
same,"Toxicity Data, Average, Mean (relative to DMSO control)","cells (nuclei count); Average of Exp 1-3, 5 uM",141.21%
same,"Toxicity Data, Average, Mean (relative to DMSO control)","cells (nuclei count); Average of Exp 1-3, 10 uM",131.00%
same,"Toxicity Data, Average, Mean (relative to DMSO control)","cells (nuclei count); Average of Exp 1-3, 25 uM",50.46%
same,"Toxicity Data, Average, Mean (relative to DMSO control)","cells (nuclei count); Average of Exp 1-3, 50 uM",84.08%
same,"Relative cell count to DMSO controls, Average (for correlation analysis)",cells (nuclei count),107.74
